Activity calls are given as the source filed them. No cut-off for these calls is given here.
Key:
[1] = Stabilization of mode-3 phosphopeptide FAM-KRSHpSV binding to recombinant 14-3-3 zeta (unknown origin) measured by fluorescence polarization assay; design: species or system Homo sapiens
[2] = Stabilization of mode-1 phosphopeptide FAM-KRSHpSVP binding to recombinant 14-3-3 zeta (unknown origin) measured by fluorescence polarization assay; design: species or system Homo sapiens
HEK293 = experiment: Antiproliferative activity against human HEK293 cells at 5 to 80 uM measured after 48 hrs by WST assay; type: functional, cell-based; settings: dose 5-80 µM
HL-60 [3] = experiment: Antiproliferative activity against human HL-60 cells at 5 to 80 uM measured after 48 hrs by WST assay; type: functional, cell-based; settings: dose 5-80 µM
HL-60 [4] = experiment: Antiproliferative activity against human HL-60 cells measured after 48 hrs by WST assay; type: functional, cell-based; settings: HL-60, 48 h

Row | SMILES | Kd [1] | Kd [2] | Activity (HEK293) | Activity (HL-60 [3]) | IC50 (HL-60 [4])
1 | C=CC(C)(C)OC[C@H]1O[C@H](O[C@@H]2C3=C(C(C)C)C[C@H](O)[C@]3(C)/C=C3/[C@@H](COC)CC[C@H]3[C@@H](C)[C@H]2O)[C@H](O)[C@@H](O)[C@@H]1O | 77 nM | 430 nM |  |  | 
2 | COC[C@H]1CC[C@@H]2/C1=C\[C@@]1(C)CCC([C@H](C)CNC(=O)C3CC3)=C1[C@@H](O[C@H]1O[C@@H]3COC(C)(C)O[C@H]3[C@H](O)[C@H]1O)[C@H](O)[C@@H]2C | 41 nM | 110 nM | Active |  | 
3 | COC[C@H]1CC[C@@H]2/C1=C\[C@@]1(C)CCC([C@H](C)CNC(=O)C3CCCCC3)=C1[C@@H](O[C@H]1O[C@@H]3COC(C)(C)O[C@H]3[C@H](O)[C@H]1O)[C@H](O)[C@@H]2C | 32 nM | 130 nM | Active |  | 
4 | COC[C@H]1CC[C@@H]2/C1=C\[C@@]1(C)CCC(C(C)C)=C1[C@@H](O[C@H]1O[C@H](CN)[C@@H](O)[C@H](O)[C@H]1O)[C@H](O)[C@@H]2C | 70 nM | 60 nM |  | Active | 
5 | CC(C)C1=C2[C@@H](O[C@H]3O[C@@H]4COC(C)(C)O[C@H]4[C@H](O)[C@H]3O)[C@H](O)[C@H](C)[C@@H]3CC[C@H](COC(F)(F)F)/C3=C/[C@@]2(C)CC1 |  | 650 nM |  |  | 
6 | CCOC[C@H]1CC[C@@H]2/C1=C\[C@@]1(C)CCC(C(C)C)=C1[C@@H](O[C@H]1O[C@@H]3COC(C)(C)O[C@H]3[C@H](O)[C@H]1O)[C@H](O)[C@@H]2C |  | 750 nM |  |  | 
7 | COC[C@H]1CC[C@@H]2/C1=C\[C@@]1(C)CCC(C(C)C)=C1[C@@H](O[C@H]1O[C@@H]3COC(C)(C)O[C@H]3[C@H](O)[C@H]1O)[C@H](O)[C@@H]2C | 96 nM | 230 nM | Active |  | 
8 | C=CC(C)(C)OC[C@H]1O[C@H](O[C@@H]2C3=C([C@H](C)CNC(C)=O)C[C@H](O)[C@]3(C)/C=C3/[C@@H](COC)CC[C@H]3[C@@H](C)[C@H]2O)[C@H](O)[C@@H](O)[C@@H]1O | 38 nM | 170 nM |  |  | 
9 | COC[C@H]1CC[C@@H]2/C1=C\[C@@]1(C)CCC(C(C)C)=C1[C@@H](O[C@H]1O[C@H](CNCc3ccccc3)[C@@H](O)[C@H](O)[C@H]1O)[C@H](O)[C@@H]2C | 250 nM | 310 nM |  |  | < 5000 nM
10 | CCCNC[C@H]1O[C@H](O[C@@H]2C3=C(C(C)C)CC[C@]3(C)/C=C3/[C@@H](COC)CC[C@H]3[C@@H](C)[C@H]2O)[C@H](O)[C@@H](O)[C@@H]1O | 120 nM | 160 nM |  | Active | 
11 | C=CC(C)(C)OC[C@H]1O[C@H](O[C@@H]2C3=C(C(C)C)C[C@H](OCc4ccc(C(=O)OC)cc4)[C@]3(C)/C=C3/[C@@H](COC)CC[C@H]3[C@@H](C)[C@H]2O)[C@H](O)[C@@H](O)[C@@H]1O | 600 nM | 680 nM |  |  | 
12 | COC[C@H]1CC[C@@H]2/C1=C\[C@@]1(C)CCC(C(C)C)=C1[C@@H](O[C@H]1O[C@@H]3CO[C@@H](OCCCN)[C@@H]3[C@H]1O)[C@H](O)[C@@H]2C |  |  |  |  | 10000 nM
13 | C=CC(C)(C)OC[C@H]1O[C@H](O[C@@H]2C3=C(C(C)C)C[C@H](OCc4ccccc4C(=O)O)[C@]3(C)/C=C3/[C@@H](COC)CC[C@H]3[C@@H](C)[C@H]2O)[C@H](O)[C@@H](O)[C@@H]1O | 480 nM | 540 nM |  |  | 
14 | CC(C)OC[C@H]1CC[C@@H]2/C1=C\[C@@]1(C)CCC(C(C)C)=C1[C@@H](O[C@H]1O[C@@H]3COC(C)(C)O[C@H]3[C@H](O)[C@H]1O)[C@H](O)[C@@H]2C |  | 680 nM |  |  | 
15 | C=CC(C)(C)OC[C@H]1O[C@H](O[C@@H]2C3=C(C(C)C)C[C@H](OCc4ccc(C(=O)O)cc4)[C@]3(C)/C=C3/[C@@H](COC)CC[C@H]3[C@@H](C)[C@H]2O)[C@H](O)[C@@H](O)[C@@H]1O | 390 nM | 470 nM |  |  | 
16 | C=CC(C)(C)OC[C@H]1O[C@H](O[C@@H]2C3=C(C(C)C)C[C@H](OCc4ccc(N=[N+]=[N-])cc4)[C@]3(C)/C=C3/[C@@H](COC)CC[C@H]3[C@@H](C)[C@H]2O)[C@H](O)[C@@H](O)[C@@H]1O | 320 nM | 620 nM |  |  | 
17 | C=CC(C)(C)OC[C@H]1O[C@H](O[C@@H]2C3=C(C(C)C)C[C@H](OCc4ccc(C#N)cc4)[C@]3(C)/C=C3/[C@@H](COC)CC[C@H]3[C@@H](C)[C@H]2O)[C@H](O)[C@@H](O)[C@@H]1O | 380 nM | 710 nM |  |  | 
18 | C=CC(C)(C)OC[C@H]1O[C@H](O[C@@H]2C3=C(C(C)C)C[C@H](OCc4ccccc4N=[N+]=[N-])[C@]3(C)/C=C3/[C@@H](COC)CC[C@H]3[C@@H](C)[C@H]2O)[C@H](O)[C@@H](O)[C@@H]1O | 480 nM | 680 nM |  |  | 
19 | C=CC(C)(C)OC[C@H]1O[C@H](O[C@@H]2C3=C(C(C)C)C[C@H](OCc4ccccc4C(=O)OC)[C@]3(C)/C=C3/[C@@H](COC)CC[C@H]3[C@@H](C)[C@H]2O)[C@H](O)[C@@H](O)[C@@H]1O | 530 nM | 660 nM |  |  | 
20 | COC[C@H]1CC[C@@H]2/C1=C\[C@@]1(C)CCC([C@H](C)CNC(=O)C(F)(F)F)=C1[C@@H](O[C@H]1O[C@@H]3COC(C)(C)O[C@H]3[C@H](O)[C@H]1O)[C@H](O)[C@@H]2C | 42 nM | 80 nM | Active |  | 
21 | COC[C@H]1CC[C@@H]2/C1=C\[C@@]1(C)CCC([C@H](C)CNC(C)=O)=C1[C@@H](O[C@H]1O[C@@H]3COC(C)(C)O[C@H]3[C@H](O)[C@H]1O)[C@H](O)[C@@H]2C | 44 nM | 110 nM | Active |  | 
